Where two headings read alike, the source gives them in different places.
How the values were obtained:
[1] = system: Apoe KO mouse atherosclerosis model; test: Atherosclerosis model: plaques in the cardiac (left ventricular) outflow tract; format: in vivo, C57BL/6 Apoe KO mice; details: Apoe KO mice, high-fat diet; GEN1-284s 60 mpk QD oral
Procedure: (§1) Method: Apoe KO mice were tested for basal blood lipid levels and divided into a normal control group and a high-fat group. After 8 weeks of housing, the mice from the high-fat group were divided into 4 groups of about 8: a normal diet group (Chow), a high-fat diet model group (HFD), an Atorvastatin positive group (HFD+atorvastatin 5 mpk, QD), and a GEN1-284s group (284-60 mpk, QD). Oral administration was performed for 8 consecutive weeks, and the effect of the compound on the following indicators in Apoe KO mice was observed: 4 blood lipid tests (TC, TG, HDL-C and LDL-C), aortic plaque En-face staining, and pathological oil red staining of the cardiac outflow tract.
(§2) Mice from the groups except for the normal diet control group (Chow) were fed with high-fat feed every day for […]. From week 9, each group was orally administered solvent or a corresponding test compound, and body weight data were recorded every day for 8 consecutive weeks. After the first 8 weeks' high-fat diet, blood samples were taken and centrifuged to separate serum, and the serum was tested for blood lipid levels (TCHO, TG, LDL-C and HDL-C). The mice were randomly grouped according to the TCHO results and body weight. During the subsequent 8 weeks of administration, blood lipid tests (TCHO, TG, LDL-C and HDL-C) were run once every 4 weeks.
Mouse heart samples were fixed overnight in 4% paraformaldehyde solution and dehydrated in sucrose solution. Then, the samples were embedded with OCT (Sakura, Japan) under a stereo microscope and made into 10 μm frozen sections. The sections were stained with oil red ORO and then subjected to routine pathological examinations. Images of the outflow tract were acquired under an optical microscope at 4× magnification, and high-quality morphological observations were carried out using an eyepiece with 20× magnification. The percentage of intimal lesions in the cardiac outflow tract was calculated. The detection criteria followed the criteria for histological classification of human atherosclerotic disease, which are described in detail below:
The area of plaques in the left ventricular outflow tract was measured using a microscope, and the proportion of plaques in the left ventricular outflow tract was calculated; this value reflects the degree of stenosis in the cardiac outflow tract vessel.

[2] = system: Apoe KO mouse atherosclerosis model; test: Atherosclerosis model (Apoe KO mice, high-fat diet): blood lipid tests TCHO, TG, LDL-C, HDL-C; format: in vivo, C57BL/6 Apoe KO mice; details: Apoe KO mice, high-fat diet; GEN1-284s 60 mpk QD oral, 8 weeks
Procedure: as §1, §2
Mice were fasted overnight, and blood (150 μL) was collected via mandibular blood sampling or eye ball removal (for endpoint only) and left at room temperature for 2 h. The blood was centrifuged at 4° C. at 7000 rpm for 10 min, and serum was pipetted, quick-frozen in dry ice and then stored at −80° C. before analysis. The serum was tested for the biochemical indicators TCHO, TG, LDL-C and HDL-C using kits and a microplate reader.

[3] = system: collagen-induced arthritis (CIA) mouse model; details: for clinical score / body weight: Mean ± SEM

Compound: O=C(Cc1ccc2ncccc2c1)N1CCC(n2c(=O)n(COP(=O)([O-])[O-])c3cccc(C(F)(F)F)c32)CC1.[Na+].[Na+] [GEN1-284 salt, (2-Oxo-3-(1-(2-(quinolin-6-yl)acetyl)piperidin-4-yl)-4-(trifluoromethyl)-2,3-dihydro-1H-benzo[d]imidazol-1-yl)methyl disodium phosphate]
- Left ventricular outflow tract plaques [1]: a certain ameliorating effect on outflow tract plaques
- Effect on dyslipidemia (TCHO, TG, HDL-C and LDL-C) [2]: partially ameliorate dyslipidemia
- Day on which consistent significant inhibition of the score of arthritis began ([3]; CIA mice, GEN1-284s 50 mg/kg): 32 days
- Histomorphological effect on arthritis ([3]; CIA mice, GEN1-284s 50 mg/kg): tendency to relieve arthritis in animals
- Inhibition rate of clinical score curve AUC relative to vehicle control group ([3]; CIA mice, GEN1-284s 50 mg/kg): 56.9%
- Pathology total score ([3]; CIA mice, GEN1-284s 50 mg/kg): lower than that of the vehicle control group
- clinical score ([3]; CIA mice, GEN1-284s 50 mg/kg p.o. QD from day 28, day 21): 0.0 ± 0.00
- clinical score ([3]; CIA mice, GEN1-284s 50 mg/kg p.o. QD from day 28, day 25): 0.3 ± 0.16
- clinical score ([3]; CIA mice, GEN1-284s 50 mg/kg p.o. QD from day 28, day 28): 0.6 ± 0.26
- clinical score ([3]; CIA mice, GEN1-284s 50 mg/kg p.o. QD from day 28, day 29): 0.8 ± 0.25
- clinical score ([3]; CIA mice, GEN1-284s 50 mg/kg p.o. QD from day 28, day 32): 1.3 ± 0.31
- clinical score ([3]; CIA mice, GEN1-284s 50 mg/kg p.o. QD from day 28, day 34): 1.8 ± 0.56
- clinical score ([3]; CIA mice, GEN1-284s 50 mg/kg p.o. QD from day 28, day 36): 2.4 ± 0.84
- clinical score ([3]; CIA mice, GEN1-284s 50 mg/kg p.o. QD from day 28, day 39): 2.9 ± 0.90
- body weight ([3]; CIA mice, GEN1-284s 50 mg/kg, day 21): 20.64 ± 0.23
- body weight ([3]; CIA mice, GEN1-284s 50 mg/kg, day 25): 20.73 ± 0.24
- body weight ([3]; CIA mice, GEN1-284s 50 mg/kg, day 28): 20.65 ± 0.25
- body weight ([3]; CIA mice, GEN1-284s 50 mg/kg, day 29): 20.49 ± 0.25
- body weight ([3]; CIA mice, GEN1-284s 50 mg/kg, day 32): 19.66 ± 0.28
- body weight ([3]; CIA mice, GEN1-284s 50 mg/kg, day 34): 20.41 ± 0.31
- body weight ([3]; CIA mice, GEN1-284s 50 mg/kg, day 36): 20.54 ± 0.36
- body weight ([3]; CIA mice, GEN1-284s 50 mg/kg, day 39): 20.48 ± 0.27
- body weight ([3]; CIA mice, GEN1-284s 50 mg/kg, day 41): 20.95 ± 0.20
- Day on which consistent significant inhibition of the score of arthritis began ([3]; CIA mice, GEN1-284s 150 mg/kg): 34 days
- clinical score ([3]; CIA mice, GEN1-284s 150 mg/kg p.o. QD from day 28, day 21): 0.0 ± 0.00
- clinical score ([3]; CIA mice, GEN1-284s 150 mg/kg p.o. QD from day 28, day 25): 0.0 ± 0.00
- clinical score ([3]; CIA mice, GEN1-284s 150 mg/kg p.o. QD from day 28, day 28): 0.6 ± 0.26
- clinical score ([3]; CIA mice, GEN1-284s 150 mg/kg p.o. QD from day 28, day 29): 0.9 ± 0.40
- clinical score ([3]; CIA mice, GEN1-284s 150 mg/kg p.o. QD from day 28, day 32): 2.0 ± 0.42
- clinical score ([3]; CIA mice, GEN1-284s 150 mg/kg p.o. QD from day 28, day 34): 2.5 ± 0.57
- clinical score ([3]; CIA mice, GEN1-284s 150 mg/kg p.o. QD from day 28, day 36): 3.4 ± 0.78
- clinical score ([3]; CIA mice, GEN1-284s 150 mg/kg p.o. QD from day 28, day 39): 3.9 ± 0.93
- body weight ([3]; CIA mice, GEN1-284s 150 mg/kg, day 21): 20.40 ± 0.23
- body weight ([3]; CIA mice, GEN1-284s 150 mg/kg, day 25): 20.53 ± 0.27
- body weight ([3]; CIA mice, GEN1-284s 150 mg/kg, day 28): 20.64 ± 0.24
- body weight ([3]; CIA mice, GEN1-284s 150 mg/kg, day 29): 20.48 ± 0.29
- body weight ([3]; CIA mice, GEN1-284s 150 mg/kg, day 32): 20.06 ± 0.25
- body weight ([3]; CIA mice, GEN1-284s 150 mg/kg, day 34): 20.41 ± 0.41
- body weight ([3]; CIA mice, GEN1-284s 150 mg/kg, day 36): 20.70 ± 0.35
- body weight ([3]; CIA mice, GEN1-284s 150 mg/kg, day 39): 20.40 ± 0.29
- body weight ([3]; CIA mice, GEN1-284s 150 mg/kg, day 41): 20.91 ± 0.26
- clinical score ([3]; CIA mice, GEN1-284s 300 mg/kg group (500 mg/kg 5 days, then 300 mg/kg) p.o. QD from day 28, day 21): 0.0 ± 0.00
- clinical score ([3]; CIA mice, GEN1-284s 300 mg/kg group (500 mg/kg 5 days, then 300 mg/kg) p.o. QD from day 28, day 25): 0.0 ± 0.00
- clinical score ([3]; CIA mice, GEN1-284s 300 mg/kg group (500 mg/kg 5 days, then 300 mg/kg) p.o. QD from day 28, day 28): 0.6 ± 0.26
- clinical score ([3]; CIA mice, GEN1-284s 300 mg/kg group (500 mg/kg 5 days, then 300 mg/kg) p.o. QD from day 28, day 29): 0.6 ± 0.24
- clinical score ([3]; CIA mice, GEN1-284s 300 mg/kg group (500 mg/kg 5 days, then 300 mg/kg) p.o. QD from day 28, day 32): 2.0 ± 0.58
- clinical score ([3]; CIA mice, GEN1-284s 300 mg/kg group (500 mg/kg 5 days, then 300 mg/kg) p.o. QD from day 28, day 34): 2.5 ± 0.87
- clinical score ([3]; CIA mice, GEN1-284s 300 mg/kg group (500 mg/kg 5 days, then 300 mg/kg) p.o. QD from day 28, day 36): 4.0 ± 1.15
- clinical score ([3]; CIA mice, GEN1-284s 300 mg/kg group (500 mg/kg 5 days, then 300 mg/kg) p.o. QD from day 28, day 39): 5.5 ± 1.19
- clinical score ([3]; CIA mice, GEN1-284s 300 mg/kg group (500 mg/kg 5 days, then 300 mg/kg) p.o. QD from day 28, day 41): 6.3 ± 1.38
- body weight ([3]; CIA mice, GEN1-284s 300 mg/kg group (500 mg/kg 5 days, then 300 mg/kg), day 21): 20.18 ± 0.29
- body weight ([3]; CIA mice, GEN1-284s 300 mg/kg group (500 mg/kg 5 days, then 300 mg/kg), day 25): 20.43 ± 0.27
- body weight ([3]; CIA mice, GEN1-284s 300 mg/kg group (500 mg/kg 5 days, then 300 mg/kg), day 28): 20.65 ± 0.34
- body weight ([3]; CIA mice, GEN1-284s 300 mg/kg group (500 mg/kg 5 days, then 300 mg/kg), day 29): 20.08 ± 0.49
- body weight ([3]; CIA mice, GEN1-284s 300 mg/kg group (500 mg/kg 5 days, then 300 mg/kg), day 32): 19.48 ± 1.02
- body weight ([3]; CIA mice, GEN1-284s 300 mg/kg group (500 mg/kg 5 days, then 300 mg/kg), day 34): 19.30 ± 1.05
- body weight ([3]; CIA mice, GEN1-284s 300 mg/kg group (500 mg/kg 5 days, then 300 mg/kg), day 36): 19.60 ± 0.81
- body weight ([3]; CIA mice, GEN1-284s 300 mg/kg group (500 mg/kg 5 days, then 300 mg/kg), day 39): 19.80 ± 0.96
- body weight ([3]; CIA mice, GEN1-284s 300 mg/kg group (500 mg/kg 5 days, then 300 mg/kg), day 41): 20.30 ± 0.78
- Mortality ([3]; CIA mice, GEN1-284s 500 mg/kg): death was caused among the mice
- Tolerance ([3]; CIA mice, GEN1-284s 50, 150 and 300 mg/kg): good tolerance
- Number of mice that died ([3]; high-dose group (500 mg/kg), day 32): On day 32, 1 mouse in the high-dose group died, and the dissection results showed that: the major abnormality was in the lungs, and no obvious abnormality was found in other organs.

Reference: patent publication US20240391940A1, “FUSED RING-CONTAINING COMPOUND, APPLICATION THEREOF, AND COMPOSITION CONTAINING SAME” (GenEros Biopharma Ltd., priority 2020, published 2024)
